Values of other authors in patent US7074797B2, “Pyrazolopyrimidines as CRF receptor antagonists” (Neurocrine Biosciences, Inc., priority 1996, dated 2006).
No end group written: not given here.

What was measured:
[1] = system: Rats; conditions: ICV, animals previously familiarized with the apparatus, fifteen minute session
[2] = system: Rats; conditions: central administration

For “CRF: corticotropin-releasing factor, a 41-amino acid peptide (SEEPPISLDLTFHLLREVLEMARAEQLAQQAHSNRKLMEII-NH2; ends and bridges not checked; UniProt P06850 154-194, looked up)”, the “latency to emerge from the small chamber” value [1] is listed as “increases”, the “mean time spent in the chamber” value [1] is listed as “increases” and the “exploration in the elevated plus maze” value [2] is listed as “suppresses exploration”.
